Several values for one entry are separate records, joined by “and”; a condition that tells them apart may be missing. Identical values can stand only once. Like-named read-outs stand apart in the source and are kept apart here.
Tests used:
Pristionchus pacificus = Pristionchus pacificus motor disruption dose-response on solid media, 1 h; settings: for mean % any phene (coiled, jerky-Unc or paralyzed): Pristionchus pacificus young adults, mean of three biological replicates; for EC50: Pristionchus pacificus, 1 h, read-out: P. pacificus motor disruption EC50
C. elegans = C. elegans motor phenotype scoring on solid media (Punc/jerky-unc, coiled, paralyzed), wild-type young adults; assay type: in vivo, Caenorhabditis elegans; settings: for any phene, mean % fraction of young adults exhibiting any phenotype (coiled, jerky-Unc or paralyzed) / atypical locomotion (number of animals) / coiled (number of animals) / no phene (number of animals) / paralyzed (number of animals) / any phene (mean % fraction of young adults exhibiting any phenotype: coiled, jerky-Unc or paralyzed): one hour; for any phene, mean % fraction of young adults exhibiting any phenotype (coiled, jerky-Unc or paralyzed) / any phene (mean % fraction of young adults exhibiting any phenotype: coiled, jerky-Unc or paralyzed): mean of three biological replicates; for atypical locomotion (number of animals) / coiled (number of animals) / no phene (number of animals) / paralyzed (number of animals): young adults, 20 animals per trial, single replicate counts; for EC50: Caenorhabditis elegans, read-out: C. elegans - motor disruption EC50
[1] = system: Dirofilaria immitis microfilariae; assay: Dirofilaria immitis microfilariae immobility assay (DiroImager, 72 h); settings: Dirofilaria immitis microfilariae
Protocol: We conducted experiments with the Missouri isolate of Dirofilaria immitis in two labs. In the first set of experiments, shown as part of Fig. 3c, D. immitis microfilariae and larval stage 3 (L3) worms were assayed in the laboratories of Bayer Animal Health GmbH (Monheim, Germany). For microfilariae immobility assays, approximately 250 freshly purified microfilariae were cultured in single wells of a 96-well microtiter plate containing supplemented RPMI 1640 medium[68],[69]. […] Microfilariae exposed to medium substituted with 1% DMSO were used as negative controls. Motility of microfilariae was evaluated after 72 h of drug exposure using an image-based approach—DiroImager, developed by Bayer Technology Services. As described in detail in refs. [68],[69], the DiroImager is an automated high-throughput platform that allows for high-resolution optical imaging of an entire 96-well microtiter plate.

[2] = system: Dirofilaria immitis L3/L4; assay: Dirofilaria immitis L3/L4 motility assay (DiroImager, 72 h); settings: Dirofilaria immitis L4
[3] = conc 3.75, observed at one hour
[4] = any motor phenotype after 1 h on solid media, ± 95% CI

| Compound | mean % any phene (coiled, jerky-Unc or paralyzed) (Pristionchus pacificus; [3]) | mean % any phene (coiled, jerky-Unc or paralyzed) (Pristionchus pacificus; conc 15, observed at one hour) | mean % any phene (coiled, jerky-Unc or paralyzed) (Pristionchus pacificus; conc 60, observed at one hour) [%] | EC50 (Pristionchus pacificus) [µM] | any phene, mean % fraction of young adults exhibiting any phenotype (coiled, jerky-Unc or paralyzed) (C. elegans; 3.75uM) [%] | atypical locomotion (number of animals) (C. elegans; 3.75uM) | coiled (number of animals) (C. elegans; 3.75uM) | no phene (number of animals) (C. elegans; 3.75uM) | paralyzed (number of animals) (C. elegans; 3.75uM) | any phene, mean % fraction of young adults exhibiting any phenotype (coiled, jerky-Unc or paralyzed) (C. elegans; 15uM) [%] | atypical locomotion (number of animals) (C. elegans; 15uM) | coiled (number of animals) (C. elegans; 15uM) | % effect (motility), DIROIM MF ([1]; 0.016 µM) [%] | % effect (motility), DIROIM MF ([1]; 0.08 µM) [%] | % effect (motility), DIROIM MF ([1]; 0.4 µM) [%] | % effect (motility), DIROIM MF ([1]; 2 µM) [%] | % effect (motility), DIROIM MF ([1]; 10 µM) [%] | % effect (motility), DIROIM L4 ([2]; 2 µM) [%] | % effect (motility), DIROIM L4 ([2]; 10 µM) [%] | % effect (motility), DIROIM L4 ([2]; 50 µM) [%] | other results |
| --- | --- | --- | --- | --- | --- | --- | --- | --- | --- | --- | --- | --- | --- | --- | --- | --- | --- | --- | --- | --- | --- |
| Clc1ccc(N2CCN(CC3CCCCC3)CC2)cc1 [Nemacol-10] | 0.8333% | 3.333% | 6.667 | > 60 | 0 | 0 | 0 | 20 | 0 | 27.5 | 5 and 4 and 3 and 1 and 2 | 1 and 2 and 0 and 3 | 0 | 0 | 0 | 0 | 0 | 0 | 0 | 25 | no phene (number of animals) (C. elegans; 15uM): 14 and 13 and 18; paralyzed (number of animals) (C. elegans; 15uM): 0 and 1 and 3; any phene, mean % fraction of young adults exhibiting any phenotype (coiled, jerky-Unc or paralyzed) (C. elegans; 60uM): 55.6944%; atypical locomotion (number of animals) (C. elegans; 60uM): 8 and 14 and 12 and 11 and 6 and 7; coiled (number of animals) (C. elegans; 60uM): 1 and 0 and 2; no phene (number of animals) (C. elegans; 60uM): 11 and 4 and 7 and 8 and 12 and 13; paralyzed (number of animals) (C. elegans; 60uM): 4 and 2 and 0; EC50 (C. elegans; [4]): 45.7 ± 15.7 µM |
| N#Cc1ccc(N2CCN(CC3CCCC3)CC2)cc1 [Nemacol-27, 4-(4-(cyclopentylmethyl)piperazin-1-yl)benzonitrile] | 9.167% and 5% | 46.6667% and 3.333% | 88.3333 | 16.4 ± 3.6 | – | – | – | – | – | – | – | – | 0 | 0 | 0 | 0 | 0 | 0 | 10 | 15 | any phene (mean % fraction of young adults exhibiting any phenotype: coiled, jerky-Unc or paralyzed) (C. elegans; 3.75uM, third c14 line of each analog): 0.8333%; any phene (mean % fraction of young adults exhibiting any phenotype: coiled, jerky-Unc or paralyzed) (C. elegans; 15uM, second c14 line of each analog): 29.1667%; any phene (mean % fraction of young adults exhibiting any phenotype: coiled, jerky-Unc or paralyzed) (C. elegans; 60uM, first c14 line of each analog): 91.3333%; EC50 (C. elegans; [4]): 21.9 ± 8.2 µM |
| c1ccc(N2CCN(CC3CCCCC3)CC2)cc1 [Nemacol-12] | 0% | 38.3333% | 98.3333 | 17.3 ± 6.3 | 16.1842 | 0 and 7 and 11 | 0 and 1 | 20 and 11 and 9 | 0 | 39.1667 | 4 and 2 and 0 and 1 and 17 and 10 | 0 and 3 and 8 | 0 | 0 | 0 | 0 | 0 | 6 | 0 | 5 | no phene (number of animals) (C. elegans; 15uM): 16 and 18 and 20 and 19 and 0; paralyzed (number of animals) (C. elegans; 15uM): 0 and 2; any phene, mean % fraction of young adults exhibiting any phenotype (coiled, jerky-Unc or paralyzed) (C. elegans; 60uM): 84.1667%; atypical locomotion (number of animals) (C. elegans; 60uM): 11 and 14 and 7 and 10 and 2 and 1; coiled (number of animals) (C. elegans; 60uM): 3 and 4 and 5 and 6 and 14 and 19; no phene (number of animals) (C. elegans; 60uM): 6 and 2 and 7 and 4 and 0; paralyzed (number of animals) (C. elegans; 60uM): 0 and 1 and 4; EC50 (C. elegans; 1 h): 18.8 ± 17.5 µM |

Reference: article PMC10066365, “Nemacol is a small molecule inhibitor of C. elegans vesicular acetylcholine transporter with anthelmintic potential” (Nature Communications, 2023)
